Experimental data published in article PMC10931833, “Simultaneous Purification of Human Interferon Alpha-2b and Serum Albumin Using Bioprivileged Fluorinated Ionic Liquid-Based Aqueous Biphasic Systems” (International Journal of Molecular Sciences, 2024).

Experiments:
IFN-α2b [1] = target: T1, IFN-α2b (Homo sapiens, UniProt P01563); experiment: CD thermal unfolding (Tm) of IFN-α2b; type: physicochemical
T1 construct: single non-glycosylated polypeptide chain with a molecular weight of 19 kDa, comprising 165 amino acids; purchased Millipore Sigma-Aldrich SRP4595-100UG; host or cells: E. coli
T1 sequence (P01563 24-188): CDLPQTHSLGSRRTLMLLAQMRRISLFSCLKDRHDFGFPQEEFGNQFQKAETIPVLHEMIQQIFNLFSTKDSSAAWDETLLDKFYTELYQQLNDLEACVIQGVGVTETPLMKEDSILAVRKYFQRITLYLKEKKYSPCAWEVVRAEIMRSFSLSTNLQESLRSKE
Method: The same analyses attained for 208 nm and 192 nm are illustrated in Figures S5 and S6 in the Supplementary Materials. The corresponding T m values are estimated by fitting to a sigmoid with four parameters (one-way ANOVA, significance level of 0.05) and summarized in Table S2 in the Supplementary Materials. The CD T m of 0.125 mg/mL native IFN- α 2b is in good agreement with what was previously reported. […] The estimated T m values are summarized in Table S2 in the Supplementary Materials. The same analysis is attained for 208 nm and 192 nm, as depicted in Figures S5 and S6 in the Supplementary Materials. All the CD T m results are summarized in Table S2 in the Supplementary Materials. The thermal stability assessed by far-UV CD is solely determined through the thermal decay of the alpha-helical structure.
The same analysis was attained for 208 nm and 192 nm as illustrated in Figure S13 in the Supplementary Materials. The corresponding T m values are depicted in Table 5, and were estimated by fitting a sigmoid with four parameters (one-way ANOVA, with a significance level of 0.05).

[2] = ref 44 (IFN-α2b), 91 (BSA), 96 (Lys); cited from earlier work
IFN-α2b [3] = target: T1, IFN-α2b; experiment: Far-UV CD secondary structure of IFN-α2b (CONTIN-LL deconvolution); type: physicochemical
Excerpt: Circular dichroism (CD) is widely used to study the secondary structures of proteins, peptides and nucleic acids, because it requires a low concentration sample, is a nondestructive method, allows studying a wide range of variables (temperature, pH, etc.), and provides information on the effect of added ligands on protein folding and interactions.
Circular dichroism (CD) spectra were collected in a 10 mm quartz cuvette and a Chirascan spectropolarimeter (Applied Photophysics, UK) at room temperature. All CD spectra were recorded in the far-UV range of 190 to 260 nm at scan rates of 50 nm/min, with 4 accumulations, and a response time of 3 s; CD spectra were collected. For each CD experiment, two distinct duplicates were acquired and combined. […] Spectral deconvolution was carried out with DichroWeb using the CONTIN-LL deconvolution algorithm with the SMP180 reference set.

BSA [4] = target: T2, BSA (Bos taurus, UniProt P02769); experiment: DSC thermal unfolding of BSA in water and aqueous solutions of ABS phase-forming components; type: physicochemical, bovine; conditions: for Tm / ΔG / ΔHcal / ΔHcal/ΔHvH / ΔHvH / ΔS: 1.0 mg/mL BSA
T2 construct: purchased Millipore Sigma-Aldrich
T2 sequence (P02769 25-607): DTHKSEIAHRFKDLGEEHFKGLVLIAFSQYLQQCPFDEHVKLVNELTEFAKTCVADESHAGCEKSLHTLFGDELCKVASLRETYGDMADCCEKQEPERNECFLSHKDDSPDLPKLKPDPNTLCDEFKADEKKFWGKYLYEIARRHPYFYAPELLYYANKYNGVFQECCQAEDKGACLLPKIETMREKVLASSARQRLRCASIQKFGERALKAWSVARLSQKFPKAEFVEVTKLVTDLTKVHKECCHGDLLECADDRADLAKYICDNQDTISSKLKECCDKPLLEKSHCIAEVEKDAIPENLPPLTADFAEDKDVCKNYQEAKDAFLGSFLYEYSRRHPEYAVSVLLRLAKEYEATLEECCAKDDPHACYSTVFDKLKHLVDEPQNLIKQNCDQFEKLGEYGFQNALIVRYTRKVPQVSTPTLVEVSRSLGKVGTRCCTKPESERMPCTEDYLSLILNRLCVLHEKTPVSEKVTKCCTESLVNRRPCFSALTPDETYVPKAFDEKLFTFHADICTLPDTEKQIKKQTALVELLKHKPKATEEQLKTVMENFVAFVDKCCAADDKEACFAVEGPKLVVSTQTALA
Method: Differential scanning calorimetry (DSC) measurements were performed with Nano DSC equipment, as detailed in Section 3, and used to determine the melting temperature (T m ) and enthalpy ( Δ H) of protein unfolding. DSC analyzes changes in the structure and stability of proteins as thermal transitions at the nanoscale. Using DSC to measure heat capacity as a function of the temperature of a well-studied protein such as BSA provides keen insights into folding and unfolding processes, as well as factors affecting stability. Due to the volume and concentration requirements of the DSC technique, and the constraints in available quantities of IFN- α 2b the DSC experiments on the ABS phase-forming components’ effect on the structural properties of proteins were attained only for BSA.
The T m of BSA, which corresponds to the thermal unfolding transition midpoint, was measured in the absence and presence of the ABS phase-forming components at increasing concentrations (see Figure 1 and Table 2).

BSA [5] = target: T2, BSA; experiment: Far-UV CD secondary structure of BSA (CONTIN-LL deconvolution); type: physicochemical, bovine; parameters: Regular Alpha Helix / Distorted Alpha Helix / Regular Beta Sheet / Distorted Beta Sheet / Turns / Unordered: unit not given here; conditions: 1.0 mg/mL BSA, 25 °C
Excerpt: Circular dichroism (CD) is widely used to study the secondary structures of proteins, peptides and nucleic acids, because it requires a low concentration sample, is a nondestructive method, allows studying a wide range of variables (temperature, pH, etc.), and provides information on the effect of added ligands on protein folding and interactions. Far-UV (190–260 nm) CD spectroscopy was used to assess the IFN- α 2b and BSA secondary structure since the spectra are characteristic of different structural elements.
Circular dichroism (CD) spectra were collected in a 10 mm quartz cuvette and a Chirascan spectropolarimeter (Applied Photophysics, UK) at room temperature. All CD spectra were recorded in the far-UV range of 190 to 260 nm at scan rates of 50 nm/min, with 4 accumulations, and a response time of 3 s; CD spectra were collected. For each CD experiment, two distinct duplicates were acquired and combined. BSA was fixed at 1 mg/mL, solvent concentrations ranging from 0.1 to 200 mM were used, and the spectra were translated to MRE after being expressed in terms of molar ellipticity. Spectral deconvolution was carried out with DichroWeb using the CONTIN-LL deconvolution algorithm with the SMP180 reference set.

BSA [6] = target: T2, BSA; experiment: CD thermal unfolding (Tm) of BSA; type: physicochemical, bovine; conditions: 1.0 mg/ml BSA, 200 mM component aqueous solution
Excerpt: The thermal stability assessed by far-UV CD is solely determined through the thermal decay of the alpha-helical structure.

FITC-BSA = target: T3, FITC-BSA (Bos taurus, UniProt P02769); experiment: MST binding to FITC-BSA; parameters: species or system bovine; conditions: 0.41 μM BSA
T3 construct: purchased Millipore Sigma-Aldrich
T3 sequence (P02769 25-607): as above
Method: Herein, a commercial FITC labeling kit (Section 3) was used to fluorescently tag both IFN- α 2b and BSA. Typically, in the labeling process, one amine per protein is labeled, statistically distributing the position of the dye. […] The MST assay was performed as detailed in Section 3. The solutions were prepared with a concentration of IFN- α 2b and BSA fixed at 0.41 μ M in water. For IFN- α 2b a concentration of 2.7 μ M was also prepared to compare it with previous results on MST-binding between FILs and IFN- α 2b fluorescently labeled with a different tag. In each run of MST, a maximum concentration of a ligand is selected and consecutively diluted in sixteen capillaries. […] The experimental conditions of the MST assay only allow the study of the aggregation phenomenon individually for the first CAC.
Microscale thermophoresis (MST) measurements of the dye-labeled protein were used to conduct binding investigations. […] MST tests were conducted in a monolith NT.115 (blue/red) in accordance with the NanoTemper Technologies methodology. Medium MST power and 20% LED power (nano-blue) were set as the instrument’s default settings. For every MST measurement, a PBS buffer was used. The concentration of FITC-BSA was fixed at 0.4 μ M and FITC-IFN- α 2b was tested under two different concentrations (of 0.4 and 2.7 μ M). The ligand was used to create a set of 16 1:1 dilutions, with the starting ligand concentrations ranging from 10 to 400 mM. The typical parameters for MST traces were used for recording: […], 30 s MST power on, and 5 s MST power off. The data from three independently conducted pipetted experiments were examined using NanoTemper Technologies’ MO.Affinity Analysis software, version 2.3.

[7] = 0.099-0.12 mg/mL IFN-α2b in [N1112(OH)][C4F9SO3]-rich phase of BP#8
[8] = 0.125 mg/mL IFN-α2b in water, 25 °C

## Human interferon-alpha 2b [IFN-α2b]
IFN-α2b [1]; 0.125 mg/mL IFN-α2b in water
  Tm, Ellipticity 192 nm: 63.311 °C
  Tm, Ellipticity 208 nm: 66.156 °C
  Tm, Ellipticity 222 nm: 67.548 °C
IFN-α2b [1]; [7]
  Tm, Ellipticity 192 nm: 42.274 °C
  Tm, Ellipticity 208 nm: 71.217 °C
  Tm, Ellipticity 222 nm: 62.080 °C
[2]
  iso-electric point: around 5.9
IFN-α2b [3]; [8]
  Distorted Alpha Helix: 0.145
  Distorted Beta Sheet: 0.071
  Regular Alpha Helix: 0.289
  Regular Beta Sheet: 0.049
  Turns: 0.209
  Unordered: 0.238
IFN-α2b [3]; IFN-α2b in water, CD deconvolution
  predicted α-helical content: 0.44

## lysozyme
[2]
  iso-electric point: approximately 11.0

## OC[C@H]1O[C@@](CO)(O[C@H]2O[C@H](CO)[C@@H](O)[C@H](O)[C@H]2O)[C@@H](O)[C@@H]1O [Sucrose, sucrose]
BSA [4]; 0.1 mM component
  Tm: 79.97 °C
  ΔG: 19.6 kcal/mol
  ΔHcal: 125 kcal/mol
  ΔHcal/ΔHvH: 0.968
  ΔHvH: 129.2 kcal/mol
  ΔS: 1.480 KJ/(mol.K)
BSA [4]; 1 mM component
  Tm: 81.63 °C
  ΔG: 26.77 kcal/mol
  ΔHcal: 167.4 kcal/mol
  ΔHcal/ΔHvH: 0.980
  ΔHvH: 170.8 kcal/mol
  ΔS: 1.974 KJ/(mol.K)
BSA [4]; 5 mM component
  Tm: 80.68 °C
  ΔG: 20.87 kcal/mol
  ΔHcal: 131.5 kcal/mol
  ΔHcal/ΔHvH: 1.018
  ΔHvH: 129.1 kcal/mol
  ΔS: 1.552 KJ/(mol.K)
BSA [4]; 10 mM component
  Tm: 80.77 °C
  ΔG: 25.17 kcal/mol
  ΔHcal: 159 kcal/mol
  ΔHcal/ΔHvH: 1.046
  ΔHvH: 151.9 kcal/mol
  ΔS: 1.878 KJ/(mol.K)
BSA [4]; tested concentration range vs water
  effect on BSA Tm (DSC): maintained
BSA [5]; 0.1 mM component
  Distorted Alpha Helix: 0.205
  Distorted Beta Sheet: 0.026
  Regular Alpha Helix: 0.391
  Regular Beta Sheet: 0.000
  Turns: 0.136
  Unordered: 0.242
BSA [5]; 1 mM component
  Distorted Alpha Helix: 0.216
  Distorted Beta Sheet: 0.023
  Regular Alpha Helix: 0.428
  Regular Beta Sheet: 0.000
  Turns: 0.135
  Unordered: 0.198
BSA [5]; 5 mM component
  Distorted Alpha Helix: 0.225
  Distorted Beta Sheet: 0.022
  Regular Alpha Helix: 0.427
  Regular Beta Sheet: 0.000
  Turns: 0.136
  Unordered: 0.19
BSA [5]; 25 mM component
  Distorted Alpha Helix: 0.196
  Distorted Beta Sheet: 0.024
  Regular Alpha Helix: 0.333
  Regular Beta Sheet: 0.004
  Turns: 0.131
  Unordered: 0.312
BSA [5]; 55 mM component
  Distorted Alpha Helix: 0.211
  Distorted Beta Sheet: 0.026
  Regular Alpha Helix: 0.412
  Regular Beta Sheet: 0.000
  Turns: 0.138
  Unordered: 0.214
BSA [5]; 90 mM component
  Distorted Alpha Helix: 0.211
  Distorted Beta Sheet: 0.025
  Regular Alpha Helix: 0.4
  Regular Beta Sheet: 0.000
  Turns: 0.137
  Unordered: 0.227
BSA [5]; 120 mM component
  Distorted Alpha Helix: 0.212
  Distorted Beta Sheet: 0.025
  Regular Alpha Helix: 0.415
  Regular Beta Sheet: 0.000
  Turns: 0.135
  Unordered: 0.213
BSA [5]; 200 mM component
  Distorted Alpha Helix: 0.216
  Distorted Beta Sheet: 0.024
  Regular Alpha Helix: 0.436
  Regular Beta Sheet: 0.000
  Turns: 0.136
  Unordered: 0.189
BSA [6]
  Tm, Ellipticity 192 nm: 70.098 °C
  Tm, Ellipticity 208 nm: 73.063 °C
  Tm, Ellipticity 222 nm: 71.977 °C
FITC-BSA; max. conc. first capillary 12.5 mM (monomer)
  Kd: no binding detected
FITC-BSA; max. conc. first capillary 400 mM (monomer)
  Kd: no binding detected
